Measurements reported in patent publication US20090181963A1, “3H-[1,2,3]TRIAZOLO[4,5-D]PYRIMIDINE COMPOUNDS, THEIR USE AS mTOR KINASE AND PI3 KINASE INHIBITORS, AND THEIR [sequence]” (Wyeth, priority 2008, published 2009).
pIC50: −log10 of the molar value.

Key:
PI3 Kinase α = PI3 Kinase α (Homo sapiens, UniProt P42336); assay: Fluorescence polarization assay for PI3K (PI3 Kinase α); format: biochemical; conditions: diC8-PI(4,5)P2 substrate, 25 μM ATP, one hour at 25° C.
PI3 Kinase γ = PI3 Kinase γ (Homo sapiens, UniProt P48736); assay: Fluorescence polarization assay for PI3K (PI3 Kinase γ); format: biochemical; conditions: diC8-PI(4,5)P2 substrate, 25 μM ATP, one hour at 25° C.
PI3 Kinase γ, sequence (P48736 whole entry): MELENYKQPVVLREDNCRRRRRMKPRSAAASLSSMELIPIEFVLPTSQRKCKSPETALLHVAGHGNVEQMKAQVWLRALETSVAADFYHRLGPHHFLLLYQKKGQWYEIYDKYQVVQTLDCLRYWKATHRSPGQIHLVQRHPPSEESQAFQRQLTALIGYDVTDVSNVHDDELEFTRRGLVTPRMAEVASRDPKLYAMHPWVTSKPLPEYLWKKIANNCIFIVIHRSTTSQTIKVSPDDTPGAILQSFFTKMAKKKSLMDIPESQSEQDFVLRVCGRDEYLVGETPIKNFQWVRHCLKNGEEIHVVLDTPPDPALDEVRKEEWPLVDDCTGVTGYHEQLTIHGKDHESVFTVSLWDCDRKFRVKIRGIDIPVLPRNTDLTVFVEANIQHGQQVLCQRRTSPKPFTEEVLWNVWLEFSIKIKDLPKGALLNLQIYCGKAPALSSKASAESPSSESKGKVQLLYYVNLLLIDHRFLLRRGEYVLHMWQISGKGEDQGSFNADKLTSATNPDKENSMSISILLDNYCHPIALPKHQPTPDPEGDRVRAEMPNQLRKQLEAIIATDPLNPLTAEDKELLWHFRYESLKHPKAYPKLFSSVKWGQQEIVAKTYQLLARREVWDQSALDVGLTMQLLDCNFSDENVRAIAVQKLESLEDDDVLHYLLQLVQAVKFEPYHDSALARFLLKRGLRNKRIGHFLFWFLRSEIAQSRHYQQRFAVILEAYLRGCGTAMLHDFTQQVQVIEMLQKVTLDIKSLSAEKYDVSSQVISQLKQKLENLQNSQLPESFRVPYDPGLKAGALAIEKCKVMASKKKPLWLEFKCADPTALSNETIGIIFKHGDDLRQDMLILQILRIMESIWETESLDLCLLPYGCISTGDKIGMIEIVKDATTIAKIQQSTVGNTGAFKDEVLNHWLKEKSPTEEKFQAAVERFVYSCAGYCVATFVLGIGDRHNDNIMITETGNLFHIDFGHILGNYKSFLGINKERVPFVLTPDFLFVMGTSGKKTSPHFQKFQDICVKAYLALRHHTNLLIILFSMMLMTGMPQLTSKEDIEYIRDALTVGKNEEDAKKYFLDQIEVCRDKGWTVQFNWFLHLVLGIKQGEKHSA

PI3 Kinase α, sequence (P42336 whole entry): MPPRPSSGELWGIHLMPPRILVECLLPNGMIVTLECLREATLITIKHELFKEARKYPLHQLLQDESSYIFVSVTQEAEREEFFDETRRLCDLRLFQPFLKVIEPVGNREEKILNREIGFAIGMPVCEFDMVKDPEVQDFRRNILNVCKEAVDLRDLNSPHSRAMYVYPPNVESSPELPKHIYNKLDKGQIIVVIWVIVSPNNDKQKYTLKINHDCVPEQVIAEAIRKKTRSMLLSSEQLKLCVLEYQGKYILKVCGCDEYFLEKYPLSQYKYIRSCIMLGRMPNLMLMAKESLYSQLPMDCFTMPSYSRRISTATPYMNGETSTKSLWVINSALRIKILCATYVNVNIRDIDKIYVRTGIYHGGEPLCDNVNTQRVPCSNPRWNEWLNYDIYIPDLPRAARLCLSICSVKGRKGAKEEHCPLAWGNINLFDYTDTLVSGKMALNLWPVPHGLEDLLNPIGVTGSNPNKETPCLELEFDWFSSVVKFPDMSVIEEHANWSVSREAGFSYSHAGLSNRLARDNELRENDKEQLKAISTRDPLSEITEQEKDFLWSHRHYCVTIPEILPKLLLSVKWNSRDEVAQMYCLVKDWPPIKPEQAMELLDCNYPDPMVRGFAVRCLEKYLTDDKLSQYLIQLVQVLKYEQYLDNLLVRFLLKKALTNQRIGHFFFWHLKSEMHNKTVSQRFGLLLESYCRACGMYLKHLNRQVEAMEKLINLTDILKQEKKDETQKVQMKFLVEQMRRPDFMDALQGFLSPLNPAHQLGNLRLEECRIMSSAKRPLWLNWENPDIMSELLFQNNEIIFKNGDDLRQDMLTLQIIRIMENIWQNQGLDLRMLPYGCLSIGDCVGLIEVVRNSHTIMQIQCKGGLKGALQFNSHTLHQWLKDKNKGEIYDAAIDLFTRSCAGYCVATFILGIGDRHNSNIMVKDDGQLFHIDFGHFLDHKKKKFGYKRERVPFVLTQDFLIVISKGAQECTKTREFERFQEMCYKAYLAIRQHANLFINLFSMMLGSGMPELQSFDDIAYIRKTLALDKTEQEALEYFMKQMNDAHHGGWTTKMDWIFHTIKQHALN
PI3 Kinase α, sequence (P27986 whole entry partner): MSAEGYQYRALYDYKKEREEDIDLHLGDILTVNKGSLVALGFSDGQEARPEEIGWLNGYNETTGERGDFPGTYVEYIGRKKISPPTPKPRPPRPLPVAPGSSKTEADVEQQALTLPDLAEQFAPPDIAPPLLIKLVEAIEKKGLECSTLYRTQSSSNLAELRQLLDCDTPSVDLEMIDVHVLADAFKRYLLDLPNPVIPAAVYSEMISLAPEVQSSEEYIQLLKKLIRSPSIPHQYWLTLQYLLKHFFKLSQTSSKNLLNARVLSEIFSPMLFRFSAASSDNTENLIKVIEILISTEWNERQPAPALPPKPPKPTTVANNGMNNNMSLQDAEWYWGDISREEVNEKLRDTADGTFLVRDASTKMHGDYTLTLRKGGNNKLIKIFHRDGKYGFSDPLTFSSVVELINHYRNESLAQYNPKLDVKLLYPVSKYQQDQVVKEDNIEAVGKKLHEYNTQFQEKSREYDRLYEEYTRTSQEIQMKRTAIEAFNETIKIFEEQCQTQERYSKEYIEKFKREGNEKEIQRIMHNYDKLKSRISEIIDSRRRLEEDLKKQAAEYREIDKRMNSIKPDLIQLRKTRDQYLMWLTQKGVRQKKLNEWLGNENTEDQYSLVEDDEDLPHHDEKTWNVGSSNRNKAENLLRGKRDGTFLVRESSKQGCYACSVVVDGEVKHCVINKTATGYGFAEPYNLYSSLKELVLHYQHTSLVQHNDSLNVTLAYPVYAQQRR

| SMILES | pIC50 (PI3 Kinase α) | pIC50 (PI3 Kinase γ) |
| --- | --- | --- |
| Oc1cccc(-c2nc(N3CCOCC3)c3nnn(C4CNC4)c3n2)c1 [Example 125, 3-(3-azetidin-3-yl-7-morpholin-4-yl-3H-[1,2,3]triazolo[4,5-d]pyrimidin-5-yl)phenol] | 6.88 | 5.71 |
| CC(C)(C)OC(=O)Cn1nnc2c(N3CCOCC3)nc(-c3cccc(O)c3)nc21 [Example 233, tert-butyl [5-(3-hydroxyphenyl)-7-morpholin-4-yl-3H-[1,2,3]triazolo[4,5-d]pyrimidin-3-yl]acetate] | 6.30 | 5.57 |
| C[C@H](NC(=O)c1ccc(Cn2nnc3c(N4CCOCC4)nc(-c4cccc(O)c4)nc32)cc1)c1ccccc1 [Example 224, 4-{[5-(3-hydroxyphenyl)-7-morpholin-4-yl-3H-[1,2,3]triazolo[4,5-d]pyrimidin-3-yl]methyl}-N-[(1S)-1-phenylethyl]benzamide] | 7.05 | 5.72 |
| O=C(O)Cn1nnc2c(N3CCOCC3)nc(-c3cccc(O)c3)nc21 [Example 245, [5-(3-hydroxyphenyl)-7-morpholin-4-yl-3H-[1,2,3]triazolo[4,5-d]pyrimidin-3-yl]acetic acid] | 6.53 | 5.71 |
| O=C(c1cccc(-n2nnc3c(N4CCOCC4)nc(-c4cccc(O)c4)nc32)c1)N1CCC(N2CCCC2)CC1 [Example 120, 3-(7-morpholin-4-yl-3-{3-[(4-pyrrolidin-1-ylpiperidin-1-yl)carbonyl]phenyl}-3H-[1,2,3]triazolo[4,5-d]pyrimidin-5-yl)phenol] | 7.81 | 6.54 |
| Cc1cc(CN2CCC(n3nnc4c(N5CCOCC5)nc(-c5cncc(O)c5)nc43)CC2)sc1C [Example 26, 5-(3-{1-[(4,5-dimethyl-2-thienyl)methyl]piperidin-4-yl}-7-morpholin-4-yl-3H-[1,2,3]triazolo[4,5-d]pyrimidin-5-yl)pyridin-3-ol] | 7.80 | 6.97 |
| CN(C)CCCOc1ccc(CN2CCC(n3nnc4c(N5CCOCC5)nc(-c5cncc(O)c5)nc43)CC2)cc1 [Example 17, 5-[3-(1-{4-[3-(dimethylamino)propoxy]benzyl}piperidin-4-yl)-7-morpholin-4-yl-3H-[1,2,3]triazolo[4,5-d]pyrimidin-5-yl]pyridin-3-ol] | 6.66 | 6.43 |
| O=C(NCCc1ccccc1)c1ccc(Cn2nnc3c(N4CCOCC4)nc(-c4cccc(O)c4)nc32)cc1 [Example 223, 4-{[5-(3-hydroxyphenyl)-7-morpholin-4-yl-3H-[1,2,3]triazolo[4,5-d]pyrimidin-3-yl]methyl}-N-(2-phenylethyl)benzamide] | 6.76 | 5.60 |
| Oc1cncc(-c2nc(N3CCOCC3)c3nnn(C4CCN(CN5CCN(Cc6ccccc6)CC5)CC4)c3n2)c1 [Example 28, 5-(3-{1-[(4-benzylpiperazin-1-yl)methyl]piperidin-4-yl}-7-morpholin-4-yl-3H-[1,2,3]triazolo[4,5-d]pyrimidin-5-yl)pyridin-3-ol] | 6.00 | 5.05 |
| COC(Cn1nnc2c(N3CCOCC3)nc(-c3ccc(N)cc3)nc21)OC [Example 178, 4-[3-(2,2-dimethoxyethyl)-7-morpholin-4-yl-3H-[1,2,3]triazolo[4,5-d]pyrimidin-5-yl]aniline] | 5.87 | < 5.00 |
| CCn1nnc2c(N3CCOC[C@@H]3C)nc(-c3ccc(N)cc3)nc21 [Example 67, (S)-4-(3-ethyl-7-(3-methylmorpholino)-3H-[1,2,3]triazolo[4,5-d]pyrimidin-5-yl)aniline] | 5.67 | < 5.00 |
| COC(=O)c1cccc(-n2nnc3c(N4CCOCC4)nc(-c4cccc(O)c4)nc32)c1 [Example 115, methyl 3-[5-(3-hydroxyphenyl)-7-morpholin-4-yl-3H-[1,2,3]triazolo[4,5-d]pyrimidin-3-yl]benzoate] | 6.62 | 5.44 |
| O=C(NCc1ccco1)c1ccc(Cn2nnc3c(N4CCOCC4)nc(-c4cccc(O)c4)nc32)cc1 [Example 230, N-(2-furylmethyl)-4-{[5-(3-hydroxyphenyl)-7-morpholin-4-yl-3H-[1,2,3]triazolo[4,5-d]pyrimidin-3-yl]methyl}benzamide] | 6.93 | 6.03 |
| CCn1nnc2c(N3CCOCC3)nc(-c3ccc(N)cc3)nc21 [Example 32, 4-(3-Ethyl-7-morpholin-4-yl-3H-[1,2,3]triazolo[4,5-d]pyrimidin-5-yl)-phenylamine] | 6.26 | 5.39 |
| NC(=O)c1cccc(-n2nnc3c(N4CCOCC4)nc(-c4cccc(O)c4)nc32)c1 [Example 119, 3-[5-(3-hydroxyphenyl)-7-morpholin-4-yl-3H-[1,2,3]triazolo[4,5-d]pyrimidin-3-yl]benzamide] | 7.65 | 6.50 |
| Oc1cccc(-c2nc(N3CCOCC3)c3nnn(CCc4ccccn4)c3n2)c1 [Example 196, 3-[7-Morpholin-4-yl-3-(2-pyridin-2-yl-ethyl)-3H-[1,2,3]triazolo[4,5-d]pyrimidin-5-yl]-phenol] | 7.12 | 5.98 |

Second part, the compound after the results:

| pIC50 (PI3 Kinase α) | pIC50 (PI3 Kinase γ) | SMILES |
| --- | --- | --- |
| 7.85 | 7.35 | COc1ccc(NC(=O)Nc2ccc(-c3nc(N4CCOCC4)c4nnn(CCO)c4n3)cc2)cc1 [Example 185, 1-{4-[3-(2-hydroxyethyl)-7-morpholin-4-yl-3H-[1,2,3]triazolo[4,5-d]pyrimidin-5-yl]phenyl}-3-(4-methoxyphenyl)urea] |
| > 8.77 | 8.15 | CCn1nnc2c(N3CCOCC3)nc(-c3ccc(NC(=O)Nc4ccc(C(=O)N5CCNC(C)(C)C5)cc4)cc3)nc21 [Example 57, 1-{4-[(3,3-dimethylpiperazin-1-yl)carbonyl]phenyl}-3-[4-(3-ethyl-7-morpholin-4-yl-3H-[1,2,3]triazolo[4,5-d]pyrimidin-5-yl)phenyl]urea] |
| 7.23 | 6.73 | COC(Cn1nnc2c(N3CCOCC3)nc(-c3ccc(NC(=O)Nc4cccnc4)cc3)nc21)OC [Example 181, 1-{4-[3-(2,2-dimethoxyethyl)-7-morpholin-4-yl-3H-[1,2,3]triazolo[4,5-d]pyrimidin-5-yl]phenyl}-3-pyridin-3-ylurea] |
| 7.94 | 6.99 | CN(C)CCCOc1ccc(CN2CCC(n3nnc4c(N5CCOCC5)nc(-c5ccc(NC(=O)NCCN(C)C)cc5)nc43)CC2)cc1 [Example 162, 1-(2-(dimethylamino)ethyl)-3-(4-(3-(1-(4-(3-(dimethylamino)propoxy)benzyl)piperidin-4-yl)-7-morpholino-3H-[1,2,3]triazolo[4,5-d]pyrimidin-5-yl)phenyl)urea] |
| 6.55 | 5.86 | O=C(NCCN1CCCC1)c1ccc(Cn2nnc3c(N4CCOCC4)nc(-c4cccc(O)c4)nc32)cc1 [Example 213, 4-{[5-(3-hydroxyphenyl)-7-morpholin-4-yl-3H-[1,2,3]triazolo[4,5-d]pyrimidin-3-yl]methyl}-N-(2-pyrrolidin-1-ylethyl)benzamide] |
| > 8.51 | 7.60 | CCn1nnc2c(N3CCOCC3)nc(-c3ccc(NC(=O)Nc4ccc(C(=O)NCCN5CCN(C)CC5)cc4)cc3)nc21 [Example 49, 4-({[4-(3-ethyl-7-morpholin-4-yl-3H-[1,2,3]triazolo[4,5-d]pyrimidin-5-yl)phenyl]carbamoyl}amino)-N-[2-(4-methylpiperazin-1-yl)ethyl]benzamide] |
| 8.10 | 7.43 | CCn1nnc2c(N3CCOCC3)nc(-c3ccc(NC(=O)Nc4ccnc(C)c4)cc3)nc21 [Example 35, 1-[4-(3-ethyl-7-morpholin-4-yl-3H-[1,2,3]triazolo[4,5-d]pyrimidin-5-yl)phenyl]-3-(2-methylpyridin-4-yl)urea] |
| 6.98 | 6.41 | CN(C)CCNC(=O)Nc1ccc(-c2nc(N3CCOCC3)c3nnn(C4CCNCC4)c3n2)cc1 [Example 152, 1-(2-(dimethylamino)ethyl)-3-(4-(7-morpholino-3-(piperidin-4-yl)-3H-[1,2,3]triazolo[4,5-d]pyrimidin-5-yl)phenyl)urea] |
| 6.40 | 5.56 | CCn1nnc2c(N3CCOCC3)nc(-c3ccc(NC(=O)NC4CCNCC4)cc3)nc21 [Example 66, 1-[4-(3-ethyl-7-morpholin-4-yl-3H-[1,2,3]triazolo[4,5-d]pyrimidin-5-yl)phenyl]-3-piperidin-4-ylurea] |
| 5.25 | 4.98 | O=C(Nc1ccc(-c2nc(N3CCOCC3)c3nnn(C4CCN(Cc5ccccc5)CC4)c3n2)cc1)Nc1cccc(Cl)c1 [Example 170, 1-{4-[3-(1-benzylpiperidin-4-yl)-7-morpholin-4-yl-3H-[1,2,3]triazolo[4,5-d]pyrimidin-5-yl]phenyl}-3-(3-chlorophenyl)urea] |
| 8.10 | 7.55 | O=C(Nc1ccccc1)Nc1ccc(-c2nc(N3CCOCC3)c3nnn(CC4CNC4)c3n2)cc1 [Example 189, 1-{4-[3-(azetidin-3-ylmethyl)-7-morpholin-4-yl-3H-[1,2,3]triazolo[4,5-d]pyrimidin-5-yl]phenyl}-3-phenylurea] |
| 8.46 | 7.54 | CCn1nnc2c(N3CCOCC3)nc(-c3ccc(NC(=O)Nc4ccc(C(=O)NCCN5CCOCC5)cc4)cc3)nc21 [Example 53, 4-({[4-(3-ethyl-7-morpholin-4-yl-3H-[1,2,3]triazolo[4,5-d]pyrimidin-5-yl)phenyl]carbamoyl}amino)-N-(2-morpholin-4-ylethyl)benzamide] |
| 8.40 | 7.70 | O=C(Nc1ccc(-c2nc(N3CCOCC3)c3nnn(CC(F)(F)F)c3n2)cc1)Nc1ccsc1 [Example 142, 1-{4-[7-morpholin-4-yl-3-(2,2,2-trifluoroethyl)-3H-[1,2,3]triazolo[4,5-d]pyrimidin-5-yl]phenyl}-3-(3-thienyl)urea] |
| 8.33 | 7.66 | O=C(Nc1ccccc1)Nc1ccc(-c2nc(N3CCOCC3)c3nnn(CCO)c3n2)cc1 [Example 186, 1-{4-[3-(2-hydroxyethyl)-7-morpholin-4-yl-3H-[1,2,3]triazolo[4,5-d]pyrimidin-5-yl]phenyl}-3-phenylurea] |
